From ChEMBL document CHEMBL4819064, “Discovery of new pyrimidopyrrolizine/indolizine-based derivatives as P-glycoprotein inhibitors: Design, synthesis, cytotoxicity, and MDR reversal activities” (Eur J Med Chem, 2021)

Tests used:
MCF7 [1] = assay: Cytotoxicity against human MCF7 cells assessed as reduction in cell viability incubated for 72 hrs by MTT assay; assay type: functional, cell-based; conditions: MCF7, 72 h
A2780 = assay: Cytotoxicity against human A2780 cells assessed as reduction in cell viability incubated for 72 hrs by MTT assay; conditions: A2780, 72 h
HT-29 = assay: Cytotoxicity against human HT29 cells assessed as reduction in cell viability incubated for 72 hrs by MTT assay; conditions: HT-29, 72 h
MRC5 = assay: Cytotoxicity against human MRC5 cells assessed as reduction in cell viability incubated for 72 hrs by MTT assay; conditions: MRC5, 72 h
[2] = Selectivity index, ratio of IC50 for human MRC5 cells to IC50 for human MCF7 cells; assay type: toxicity; conditions: MRC5 cells versus MCF7 cells, read-out: Ratio IC50
[3] = Selectivity index, ratio of IC50 for human MRC5 cells to IC50 for human A2780 cells; assay type: toxicity; conditions: MRC5 cells versus A2780 cells, read-out: Ratio IC50
NCI/ADR-RES [4] = assay: Cytotoxicity against human MCF7/ADR cells assessed as reduction in cell viability incubated for 72 hrs by MTT assay
NCI/ADR-RES [5] = assay: Cytotoxicity against human MCF7/ADR cells assessed as reduction in cell viability incubated for 72 hrs in presence of doxorubicin by MTT assay; assay type: functional, cell-based
[6] = Reversal of multidrug resistant activity in human MCF7/ADR cells assessed as reversal fold after 72 hrs by MTT assay; assay type: functional, NCI/ADR-RES
NCI/ADR-RES [7] = assay: Synergistic cytotoxicity against human MCF7/ADR cells assessed as combination index at 0.25 uM after 72 hrs in presence of 0.25 uM doxorubicin by MTT assay; assay type: functional
NCI/ADR-RES [8] = assay: Synergistic cytotoxicity against human MCF7/ADR cells assessed as combination index at 0.25 uM after 72 hrs in presence of 0.5 uM doxorubicin by MTT assay; assay type: functional
NCI/ADR-RES [9] = assay: Synergistic cytotoxicity against human MCF7/ADR cells assessed as combination index at 0.25 uM after 72 hrs in presence of 1 uM doxorubicin by MTT assay; assay type: functional
NCI/ADR-RES [10] = assay: Synergistic cytotoxicity against human MCF7/ADR cells assessed as combination index at 0.5 uM after 72 hrs in presence of 0.25 uM doxorubicin by MTT assay; assay type: functional
NCI/ADR-RES [11] = assay: Synergistic cytotoxicity against human MCF7/ADR cells assessed as combination index at 0.5 uM after 72 hrs in presence of 0.5 uM doxorubicin by MTT assay; assay type: functional
NCI/ADR-RES [12] = assay: Synergistic cytotoxicity against human MCF7/ADR cells assessed as combination index at 0.5 uM after 72 hrs in presence of 1 uM doxorubicin by MTT assay; assay type: functional
NCI/ADR-RES [13] = assay: Synergistic cytotoxicity against human MCF7/ADR cells assessed as combination index at 1 uM after 72 hrs in presence of 0.25 uM doxorubicin by MTT assay; assay type: functional
NCI/ADR-RES [14] = assay: Synergistic cytotoxicity against human MCF7/ADR cells assessed as combination index at 1 uM after 72 hrs in presence of 0.5 uM doxorubicin by MTT assay; assay type: functional
NCI/ADR-RES [15] = assay: Synergistic cytotoxicity against human MCF7/ADR cells assessed as combination index at 1 uM after 72 hrs in presence of 1 uM doxorubicin by MTT assay; assay type: functional
[16] = molecular target: T1, ATP-dependent translocase ABCB1 (Homo sapiens, UniProt P08183); assay: Inhibition of P-gp activity in human MCF7/ADR cells after 72 hrs by RT-PCR analysis; assay type: cell-based; conditions: nci/adr-res, at 125 to 1000 nM, dose 125-1000 nM
T1 sequence (P08183 whole entry): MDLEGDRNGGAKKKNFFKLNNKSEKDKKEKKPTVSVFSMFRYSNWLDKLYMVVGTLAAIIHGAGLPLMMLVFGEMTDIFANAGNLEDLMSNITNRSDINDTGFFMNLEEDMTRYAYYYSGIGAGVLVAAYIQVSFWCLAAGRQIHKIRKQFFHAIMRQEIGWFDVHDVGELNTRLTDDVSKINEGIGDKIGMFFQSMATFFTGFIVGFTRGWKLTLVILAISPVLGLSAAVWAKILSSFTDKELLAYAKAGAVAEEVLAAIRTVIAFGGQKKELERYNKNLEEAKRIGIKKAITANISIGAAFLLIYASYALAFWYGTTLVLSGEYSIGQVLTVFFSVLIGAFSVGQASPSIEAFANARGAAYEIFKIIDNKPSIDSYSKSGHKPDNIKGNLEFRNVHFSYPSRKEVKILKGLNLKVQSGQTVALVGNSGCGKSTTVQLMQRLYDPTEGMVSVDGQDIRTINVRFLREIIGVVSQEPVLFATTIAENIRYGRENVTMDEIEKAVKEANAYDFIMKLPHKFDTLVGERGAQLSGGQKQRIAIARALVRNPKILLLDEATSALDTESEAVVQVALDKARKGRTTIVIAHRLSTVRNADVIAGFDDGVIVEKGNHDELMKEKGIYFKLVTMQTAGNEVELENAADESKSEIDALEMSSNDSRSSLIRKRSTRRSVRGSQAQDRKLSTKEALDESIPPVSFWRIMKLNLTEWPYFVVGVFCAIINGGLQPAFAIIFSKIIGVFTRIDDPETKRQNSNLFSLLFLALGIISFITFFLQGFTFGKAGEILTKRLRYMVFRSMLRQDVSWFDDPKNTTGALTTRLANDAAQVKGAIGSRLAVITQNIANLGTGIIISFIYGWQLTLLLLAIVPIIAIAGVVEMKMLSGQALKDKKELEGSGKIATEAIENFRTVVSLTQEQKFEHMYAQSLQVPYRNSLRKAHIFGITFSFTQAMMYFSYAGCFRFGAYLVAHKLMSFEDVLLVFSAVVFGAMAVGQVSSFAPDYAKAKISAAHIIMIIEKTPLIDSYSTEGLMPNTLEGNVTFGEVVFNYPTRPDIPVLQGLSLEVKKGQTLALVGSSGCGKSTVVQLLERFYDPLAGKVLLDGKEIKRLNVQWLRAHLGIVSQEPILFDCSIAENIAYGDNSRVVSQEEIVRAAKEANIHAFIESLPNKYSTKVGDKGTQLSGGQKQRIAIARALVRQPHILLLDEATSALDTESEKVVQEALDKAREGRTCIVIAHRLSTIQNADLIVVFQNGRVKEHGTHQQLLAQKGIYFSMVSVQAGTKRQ

[17] = molecular target: T1, ATP-dependent translocase ABCB1; assay: Inhibition of P-gp activity in human MCF7/ADR cells at 250 nM after 72 hrs by RT-PCR analysis relative to control; assay type: cell-based, NCI/ADR-RES; conditions: nci/adr-res, 72 h, 0.25 µM
[18] = molecular target: T1, ATP-dependent translocase ABCB1; assay: Inhibition of P-gp activity in human MCF7/ADR cells at 500 nM after 72 hrs by RT-PCR analysis relative to control; assay type: cell-based, NCI/ADR-RES; conditions: nci/adr-res, 72 h, 0.5 µM
[19] = molecular target: T1, ATP-dependent translocase ABCB1; assay: Inhibition of P-gp activity in human MCF7/ADR cells at 1000 nM after 72 hrs by RT-PCR analysis relative to control; assay type: cell-based, NCI/ADR-RES; conditions: nci/adr-res, 72 h, 1 µM
MCF7 [20] = assay: Cell cycle arrest in human MCF7 cells assessed as accumulation at pre-G1 phase at 0.125 uM incubated for 72 hrs by PI staining based flow cytometric analysis (reference value: 1.6 +/- 0.2 %); assay type: functional
MCF7 [21] = assay: Cell cycle arrest in human MCF7 cells assessed as accumulation at pre-G1 phase at 0.250 uM incubated for 72 hrs by PI staining based flow cytometric analysis (reference value: 1.6 +/- 0.2 %); assay type: functional; conditions: dose 0.25 µM
MCF7 [22] = assay: Cell cycle arrest in human MCF7 cells assessed as accumulation at G1 phase at 0.250 uM incubated for 72 hrs by PI staining based flow cytometric analysis (reference value: 56.9 +/- 5.6 %); assay type: functional; conditions: dose 0.25 µM
MCF7 [23] = assay: Cell cycle arrest in human MCF7 cells assessed as accumulation at G1 phase at 0.5 uM incubated for 72 hrs by PI staining based flow cytometric analysis (reference value: 56.9 +/- 5.6 %); assay type: functional
MCF7 [24] = assay: Cell cycle arrest in human MCF7 cells assessed as accumulation at S phase at 0.125 uM incubated for 72 hrs by PI staining based flow cytometric analysis (reference value: […] +/- 2.6 %); assay type: functional
MCF7 [25] = assay: Cell cycle arrest in human MCF7 cells assessed as accumulation at S phase at 0.250 uM incubated for 72 hrs by PI staining based flow cytometric analysis (reference value: […] +/- 2.6 %); assay type: functional; conditions: dose 0.25 µM
MCF7 [26] = assay: Cell cycle arrest in human MCF7 cells assessed as accumulation at S phase at 0.5 uM incubated for […] staining based flow cytometric analysis (reference value: […] +/- 2.6 %); assay type: functional
MCF7 [27] = assay: Induction of apoptosis in human MCF7 cells assessed as late apoptotic cells at 0.125 uM after 72 hrs by Annexin V-FITC/propidium iodide staining-based flow cytometric analysis (reference value: 2.8 %); assay type: functional
MCF7 [28] = assay: Induction of apoptosis in human MCF7 cells assessed as necrotic cells at 0.125 uM after 72 hrs by Annexin V-FITC/propidium iodide staining-based flow cytometric analysis (reference value: 6.2 %); assay type: functional
MCF7 [29] = assay: Induction of apoptosis in human MCF7 cells assessed as viable cells at 0.250 uM after 72 hrs by Annexin V-FITC/propidium iodide staining-based flow cytometric analysis (reference value: 86.4 %); assay type: functional; conditions: read-out: Activity
MCF7 [30] = assay: Induction of apoptosis in human MCF7 cells assessed as necrotic cells at 0.250 uM after 72 hrs by Annexin V-FITC/propidium iodide staining-based flow cytometric analysis (reference value: 6.2 %); assay type: functional; conditions: dose 0.25 µM
MCF7 [31] = assay: Induction of apoptosis in human MCF7 cells assessed as viable cells at 0.5 uM after 72 hrs by Annexin V-FITC/propidium iodide staining-based flow cytometric analysis (reference value: 86.4 %); assay type: functional; conditions: read-out: Activity
MCF7 [32] = assay: Induction of apoptosis in human MCF7 cells assessed as late apoptotic cells at 0.5 uM after 72 hrs by Annexin V-FITC/propidium iodide staining-based flow cytometric analysis (reference value: 2.8 %); assay type: functional

## N#Cc1c2n(c3c(=O)n(-c4ccccc4)cnc13)CCCC2
MCF7 [1]
  IC50: 300 nM
A2780
  IC50: 60 nM
HT-29
  IC50: 1070 nM
MRC5
  IC50: 1450 nM
[2]
  selectivity ratio: 4.83
[3]
  selectivity ratio: 24.2
NCI/ADR-RES [4]
  IC50: 6010 nM
NCI/ADR-RES [5]
  IC50: 1170 nM
[6]
  fold change (FC): 15.57
NCI/ADR-RES [7]
  CI: 0.927
NCI/ADR-RES [8]
  CI: 0.631
NCI/ADR-RES [9]
  CI: 0.433
NCI/ADR-RES [10]
  CI: 1.9
NCI/ADR-RES [11]
  CI: 1.7
NCI/ADR-RES [12]
  CI: 1.552
NCI/ADR-RES [13]
  CI: 0.211
NCI/ADR-RES [14]
  CI: 0.08
NCI/ADR-RES [15]
  CI: 0.025
[16]
  inhibition (INH): Dose-Dependent Effect
[17]
  inhibition (INH): 176%
[18]
  inhibition (INH): 190%
[19]
  inhibition (INH): 220%
MCF7 [20]
  Activity: 1.6%
MCF7 [21]
  Activity: 1.2%
MCF7 [22]
  Activity: 75.2%
MCF7 [23]
  Activity: 77.8%
MCF7 [24]
  Activity: 13.4%
MCF7 [25]
  Activity: 5.5%
MCF7 [26]
  Activity: 4.1%
MCF7 [27]
  Activity: 1.7%
MCF7 [28]
  Activity: 5.4%
MCF7 [29]
  viability at 0.25 µM: 68.2%
MCF7 [30]
  Activity: 10.7%
MCF7 [31]
  viability at 0.5 µM: 70.3%
MCF7 [32]
  Activity: 2.1%
